Results on 10 compounds are retold here after patent US12544354B2 (RIKEN, priority 2019, dated 2026).

One data set relates to PC12 cells. The data set can be described thus: Cell death inhibitory activity test: glutamic acid-induced cell death of PC12 cells (MTS assay). Format: cell-based, rat. Particulars: test compound 1, 3, 10 or 30 μM, added 24 h before glutamic acid; cell viability by MTS 48 h later. The source says: Simultaneously when mitochondria take up calcium, the membrane potential dissipates and mPTP opens. Physiologically, hydrogen peroxide generates in the mitochondrial respiratory chain with opening of mPTP and may further produce a damage to not only mitochondria but also cells. […] Oxidative stress ascribed to hydrogen peroxide may cause cell damage downstream of Ca uptake. In the test, the relationship between mPTP-opening inhibitory effect on cells and cell death was studied by using rat adrenal pheochromocytoma-derived PC12 cells.
The PC12 cells used in the test are derived from rat adrenal pheochromocytoma but are differentiated into sympathetic neurons by a nerve growth factor, and known to cause cell death in a glutamic acid concentration dependent manner (Pereira C F, Oliveira, R, Neuroscience Research, vol. 37(3), p. 227-236, 2000, Oxidative glutamate toxicity involves mitochondrial dysfunction and perturbation of intracellular Ca^2+ homeostasis).
A growth medium (composition: Dulbecco modified MEM culture medium (Gibco 11885-084) containing 100 units of penicillin, 100 μg/mL streptomycin (Gibco 15-140-122), 2.5% inactivated fetal bovine serum (Gibco 10437-028) and 2.5% inactivated horse serum (Gibco 16050-130)) were prepared. PC12 cells were cultured in a culture dish (diameter: 100 mm, Corning 353003) containing 10 ml of the growth medium. PC12 cells cryopreserved were thawed, cultured in the growth medium for at least one week and used in the test. PC12 cells were removed with 0.25% trypsin-1 mM EDTA and subcultured. The following experiments were all carried out at 37° C. by a CO2 incubator in an atmosphere containing 5% CO2. […]
After addition of MTS for CellTiter 96 ® AQueous One Solution Cell Proliferation Assay (Promega G3580)), the microplate was placed in a CO2 incubator and incubation was carried out for 4 hours. Absorbance of individual wells at a wavelength of 490 nm was measured by a spectrophotometer (SpectraMax i3 manufactured by Molecular Devices) with 700 nm used as a reference wavelength. A cell viability was calculated in accordance with the following expression (1) based on the absorbance obtained. Note that, to reduce background non-specific absorption due to excessive cell residue, culture medium and others, the obtained absorbance data were corrected based on the absorbance at a reference wavelength of 700 nm. […] Cell viability (%)=[(Abs−Abm)/(Abc−Abm)]×100 Expression (1) • Abs: Absorbance of sample (well containing cells, glutamic acid-added medium and MTS solution) • Abc: Absorbance of negative control (well containing cells, control medium and MTS solution) • Abm: Absorbance of blank (well containing control medium and MTS solution) (Suppression of Cell Death in the Presence of Test Compound) […]
(Tetrazolium dyes change colour on reduction, which living cells bring about.)

The subject of data set [1] is mitochondrial permeability transition pore (mPTP). The data set can be described thus: mPTP-opening inhibitory activity test (calcium retention capacity, CRC) in mitochondria isolated from mouse brain. Format: biochemical. Particulars: for mPTP-Opening inhibitory activity at 1.0 μM compound concentration CRC/CRC (DMSO): mitochondria from C57B6J mouse brain, ratio of calcium required for mPTP-opening with compound vs DMSO control. The protocol:
In this test, inhibitory effects of mPTP in mitochondria isolated from the brain were evaluated.
The mPTP-opening inhibitory activity and efficacy of test compounds are determined by evaluating inhibitory potency thereof against opening of mPTP formed of inner and outer mitochondrial membranes, by in-vitro assay described later.
The animal was humanely euthanized by cervical dislocation, and the brain was excised out. The brain excised out was put in an isolation buffer (280 mM sucrose, 10 mM 3-morpholinopropanesulfonic acid (MOPS), 1 mM ethylenediamine tetraacetic acid dipotassium salt (EDTA-2K), pH 7.2) cooled in ice. The brain was rinsed with the buffer cooled in ice and cut by scissors in the buffer put in a beaker placed on ice. The cut pieces were transferred to a Dounce glass homogenizer. The buffer was exchanged with an isolation buffer containing 12% Percoll, and the cut pieces were homogenized. The cut pieces were homogenized four times by use of a loose pestle and 8 times by use of a tight pestle while vertically rotating. The homogenate was gently overlaid on the layer formed of two portions different in density of Percoll (26%, 40%) in 50 ml-centrifuge tubes, which were then spun by a centrifuge (HITACHI CR22N, rotor R20A2) maintained at 4° C. at 30700×g for 5 minutes. The intermediate layer between the 26% layer and the 40% layer was carefully sucked by use of a 23 G needle, added in an isolation buffer (24 ml) previously cooled in ice, and spun by a centrifuge at 16700×g to allow mitochondria to precipitate as a pellet. The supernatant was gently discarded and the mitochondria was suspended. The amount of the mitochondrial suspension was measured and an aliquot of 20 μl was taken for determining protein concentration. To the mitochondrial suspension, 10 mg/ml BSA ([…]) was added and further an isolation buffer was added up to a volume of 1.2 ml (final concentration 1 mg/mL). The suspension was transferred to 2.0 ml tubes and then centrifuged. The supernatant was discarded and mitochondrial pellets were obtained and stored in ice. The protein amount of mitochondria was measured in accordance with the Bradford method.
To mitochondrial pellets isolated, a measurement buffer (210 mM sucrose, 20 mM potassium chloride, 3 mM glycylglycine and 1 mM potassium dihydrogen phosphate) containing a fluorescent calcium indicator, calcium green-5N (200 nM), was added to as to obtain a concentration of 150 μg/ml. In this manner, a mitochondrial suspension was prepared. Calcium green, which binds to calcium and emits fluorescence, is used as a probe for quantification. When calcium green is added to a mitochondrial suspension, the presence of calcium in the external fluid thereof can be detected. The mitochondrial suspension prepared by suspending mitochondria with the measurement buffer containing 400 nM calcium green was added in wells of a 96 well plate. To predetermined wells, a measurement buffer containing 40 mM glutamic acid, 4 mM malic acid and a double-concentration of test compound was added to prepare a mitochondrial suspension of 100 μl/well (final concentration: 20 mM glutamic acid, 2 mM malic acid). To the mitochondrial suspension in the wells of the 96 well plate, calcium was continuously added dropwise (10 μl of 117 μM CaCl2) was added in a rate of 100 μl/well, final concentration 11.7 μM), and the fluorescence value reflecting the amount of extramitochondrial calcium was determined ([…]). The measurement was carried out by a functional drug screening system, FDSS3000 (Hamamatsu Photonics K. K.). Incubation at 30° C. and shaking of the well plate were carried out by devices equipped in the system. Calcium (CaCl2)) was added at intervals of one minute in accordance with the program of FDSS3000 software.

Data set [2] relates to local cerebral ischemia mouse model (pMCA-O). The data set can be described thus: Suppression test for cell death caused by cerebral ischemia: local cerebral ischemia mouse model by permanent middle cerebral artery occlusion (pMCA-O). To be noted: mice, 100 mg/kg intraperitoneal.
Description: In the test, to evaluate the action of test compounds to protect cells from cell death in vivo, a local cerebral ischemia mouse model was prepared by permanent middle cerebral artery occlusion (pMCA-O) and actions of test compounds to protect the cells at a brain injury site one day after occlusion were examined. Note that, for preparing a permanent middle cerebral artery occlusion model, C57BL/6JJmsSlc was used.
As the solvent, dimethyl sulfoxide (DMSO: FUJIFILM Wako Pure Chemical Corporation), polyethylene glycol (PEG400: FUJIFILM Wako Pure Chemical Corporation) and phosphate buffered saline (PBS: FUJIFILM Wako Pure Chemical Corporation) were used. The final concentrations of DMSO, PEG400 and PBS were set to be 15%, 50% and 35%, respectively. […]
One day after cerebral ischemia, the head of each of the mice was removed under anesthesia with 2% isoflurane and the whole brain was carefully excised out. […] These brain sections were stained in physiological saline containing 10 mL of 2% 2,3,5-triphenyl tetrazolium chloride (TTC) (manufactured by Hayashi Pure Chemical Ind., Ltd.) for 30 minutes (Bederson, J B et al., Stroke, 1986, vol. 17, p. 1304-1308, Evaluation of 2,3,5-triphenyltetrazolium chloride as a stain for detection and quantification of experiment a cerebral Infarction in rats). […]
The size of a brain injury site was determined as follows.

SMILES strings stand for the structures.

In the case of `CC(=O)Oc1cccc2c1C(=O)[C@@H]1C(=O)O[C@@]2(C)[C@H]1Cc1c(OC(C)=O)c(OC(C)=O)c(C(N)=O)c(OC(C)=O)c1OC(C)=O` [Compound I-4, 3-(((1S,4R,10S)-6-acetoxy-1-methyl-3,5-dioxo-1,3,4,5-tetrahydro-1,4-methanobenzo[c]oxepin-10-yl)methyl)-6-carbamoyl benzene-1,2,4,5-tetraryl tetraacetate], the “protection of PC12 cells from cell death induced by glutamic acid (FIG. 4)” value (“protection of PC12 cells” below) with PC12 cells was “stronger protective actions”.

Regarding `CN(C)c1ccc(O)c2c1C[C@@H](CC1=C(O)C(=O)C(C(N)=O)=C(O)C1=O)CC2=O` [Compound I-3, (S)-4-((8-(dimethylamino)-5-hydroxy-4-oxo-1,2,3,4-tetrahydronaphthalen-2-yl)methyl)-2,5-dihydroxy-3,6-dioxocyclohexa-1,4-dienecarboxamide], the “mPTP-Opening inhibitory activity at 1.0 μM compound concentration CRC/CRC (DMSO)” value in data set [1] is 1.22.

As to `C[C@@]12OC(=O)[C@@H](C(=O)c3c(OC(=O)c4ccccc4)cccc31)[C@@H]2Cc1c(OC(=O)c2ccccc2)c(OC(=O)c2ccccc2)c(C(N)=O)c(OC(=O)c2ccccc2)c1OC(=O)c1ccccc1` [Compound I-6, 3-(((1S,4R,10S)-6-(benzoyloxy)-1-methyl-3,5-dioxo-1,3,4,5-tetrahydro-1,4-methanobenzo[c]oxepin-10-yl)methyl)-6-carbamoyl benzene-1,2,4,5-tetraryl tetrabenzoate)], the “protection of PC12 cells” value in the data set on PC12 cells is recorded as “stronger protective actions”.

Take `CC(C)(C)C(=O)Oc1cccc2c1C(=O)[C@@H]1C(=O)O[C@@]2(C)[C@H]1Cc1c(OC(=O)C(C)(C)C)c(OC(=O)C(C)(C)C)c(C#N)c(OC(=O)C(C)(C)C)c1OC(=O)C(C)(C)C` [Compound I-5]: the “protection of PC12 cells” value in the data set on PC12 cells is “stronger protective actions”.

In the case of `C[C@@]12OC(=O)[C@@H](C(=O)c3c(O)cccc31)[C@@H]2CC1=C(O)C(=O)C(C#N)=C(O)C1=O` [Compound Ia-4, 2,5-dihydroxy-4-(((1S,4R,10S)-6-hydroxy-1-methyl-3,5-dioxo-1,3,4,5-tetrahydro-1,4-methanobenzo[c]oxepin-10-yl)methyl)-3,6-dioxocyclohexa-1,4-dienocarbonitrile], the “mPTP-Opening inhibitory activity at 1.0 μM compound concentration CRC/CRC (DMSO)” value in data set [1] was determined as 1.59.

As for `C[C@@]12OC(=O)[C@@H](C(=O)c3c(O)cccc31)[C@@H]2CC1=C(O)C(=O)C(C(N)=O)=C(O)C1=O` [Compound I-1, 2,5-dihydroxy-4-(((1S,4R,10S)-6-hydroxy-1-methyl-3,5-dioxo-1,3,4,5-tetrahydro-1,4-methanobenzo[c]oxepin-10-yl)methyl)-3,6-dioxocyclohexa-1,4-dienocarboxamide], the “mPTP-Opening inhibitory activity at 1.0 μM compound concentration CRC/CRC (DMSO)” value in data set [1] came out at 2.96. For the same compound, in data set [1] (dose response of CRC/CRC(DMSO), FIG. 2), the “concentration needed to inhibit mPTP-opening compared with cyclosporine A (FIG. 2)” value was “at a lower concentration than cyclosporine A”. Further, the “deaths of animals during the test period” value in data set [2] is listed as “not seen”. The “average brain injury rate, lower than the control group” value in data set [2] (one day after cerebral ischemia, total brain injury rate P<0.05, cerebral cortex injury rate P<0.01) is “about 25%”. The “protection of PC12 cells” value in the data set with PC12 cells is given as “protected PC12 cells, to no small extent”.

In the case of `C[C@@]12OC(=O)[C@@H](C(=O)c3c(O)ccc(Cl)c31)[C@@H]2CC1=C(O)C(=O)C(C(N)=O)=C(O)C1=O` [Compound Ia-1, 4-(((1S,4R,10S)-9-chloro-6-hydroxy-1-methyl-3,5-dioxo-1,3,4,5-tetrahydro-1,4-methanobenzo[c]oxepin-10-yl)methyl)-2,5-dihydro-3,6-dioxohexa-1,4-dienecarboxamide], in data set [1], the “mPTP-Opening inhibitory activity at 1.0 μM compound concentration CRC/CRC (DMSO)” value is recorded as 1.66.

Turning to `C[C@@]12OC(=O)[C@@H](C(=O)c3c(O)cccc31)[C@@H]2Cc1c(O)c(O)c(C(N)=O)c(O)c1O` [Compound I-2, 2,3,5,6-tetrahydroxy-4-(((1S,4R,10S)-6-hydroxy-1-methyl-3,5-dioxo-1,3,4,5-tetrahydro-1,4-methanobenzo[c]oxepin-10-yl)methyl)benzamide], in data set [1], the “mPTP-Opening inhibitory activity at 1.0 μM compound concentration CRC/CRC (DMSO)” value amounted to 2.92.

As to `C[C@@]12OC(=O)[C@@H](C(=O)c3c(O)ccc(Cl)c31)[C@@H]2Cc1c(O)c(O)c(C(N)=O)c(O)c1O` [Compound Ia-2, 4-(((1S,4R,10S)-9-chloro-6-hydroxy-1-methyl-3,5-dioxo-1,3,4,5-tetrahydro-1,4-methanobenzo[c]oxepin-10-yl)methyl)-2,3,5,6-tetrahydroxybenzamide], the “mPTP-Opening inhibitory activity at 1.0 μM compound concentration CRC/CRC (DMSO)” value in data set [1] was 1.50.

Turning to `C[C@@H]1c2cccc(O)c2C(=O)C[C@@H]1CC1=C(O)C(=O)C(C(N)=O)=C(O)C1=O` [Compound Ia-3, 2,5-dihydroxy-4-(((1S,2S)-5-hydroxy-1-methyl-4-oxo-1,2,3,4-tetrahydronaphthalen-2-yl)methyl)-3,6-dioxocyclohexa-1,4-dienecarboxamide], the “mPTP-Opening inhibitory activity at 1.0 μM compound concentration CRC/CRC (DMSO)” value in data set [1] is recorded as 3.00.
